Columns and labels:
Format in all cases: in vivo
rice plant = assay: Test Example 5: effect on crop by foliage application, plastic box (symbol b); conditions: 320 g/ha, 3 weeks after application
Procedure, shortened: (§1)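 Crop seed is sown alongside grass and broadleaf weed species in spots in sterilized diluvial soil, then covered to a depth of about 1.5 cm. Plants grow in a greenhouse kept at 25° C. to 30° C.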

wheat = assay: Test Example 4: effect on crop by soil treatment (symbol e); conditions: application herbicide amount 320 g/ha
Procedure, shortened: (§2)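 Crop seed is sown in spots together with several weed species in a box of sterilized diluvial soil. It is covered by about 1.5 cm of soil and kept in a greenhouse held between 25° C. and 30° C.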

Chenopodium album = assay: Test Example 5: herbicidal effect by foliage application, plastic box (symbol O); conditions: 320 g/ha, 3 weeks after application
Procedure, shortened: (§3)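 Greenhouse foliar test: seedlings at 14 days, grown 25° C. to 30° C. in sterilized diluvial soil; compound applied as an aqueous dilution of an emulsion; response read 3 weeks after spraying.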

[1] = tested on: Echinochloa crus-galli var. crus-galli; assay: Test Example 3: herbicidal effect by foliage application, Wagner pot (symbol H); conditions: application herbicide amount 320 g/ha
Procedure, shortened: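 Alluvial soil was flooded to a depth of 0.1–0.5 cm, seeded with the weeds and rice, and kept in a greenhouse at 25–30 °C. After 14 days of growth, the foliage received a small-sprayer application of emulsion diluted to the intended rate; injury was rated at 3 weeks.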

Lolium multiflorum Lam. = assay: Test Example 5: herbicidal effect by foliage application, plastic box (symbol K); conditions: 320 g/ha, 3 weeks after application
Procedure, shortened: as §3

Digitaria ciliaris = assay: Test Example 5: herbicidal effect by foliage application, plastic box (symbol F); conditions: 320 g/ha, 3 weeks after application
Procedure, shortened: as §3

Alopecurus myosuroides = assay: Test Example 5: herbicidal effect by foliage application, plastic box (symbol J); conditions: 320 g/ha, 3 weeks after application
Procedure, shortened: as §3

Apera spica-venti [2] = assay: Test Example 5: herbicidal effect by foliage application, plastic box (symbol L); conditions: 320 g/ha, 3 weeks after application
Procedure, shortened: as §3

Stellaria media = assay: Test Example 5: herbicidal effect by foliage application, plastic box (symbol P); conditions: 320 g/ha, 3 weeks after application
Procedure, shortened: as §3

soybean = assay: Test Example 4: effect on crop by soil treatment (symbol d); conditions: application herbicide amount 320 g/ha
Procedure, shortened: as §2

[3] = tested on: directly sowed rice plant; assay: Test Example 3: effect on crop by foliage application, Wagner pot (symbol b); conditions: application herbicide amount 320 g/ha
Procedure, shortened: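 Alluvial soil in a 1/10000-are Wagner pot was flooded to a water depth of 0.1–0.5 cm. Echinochloa crus-galli var. crus-galli, Leptochloa chinensis, Cyperus difformis and rice were sown into it and grown in a greenhouse at 25–30 °C.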

Apera spica-venti [4] = assay: Test Example 4: herbicidal effect by soil treatment (symbol L); conditions: application herbicide amount 320 g/ha
Procedure, shortened: (§4)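 Seeds were sown in sterilized diluvial soil, covered with about 1.5 cm of soil, and the soil surface was sprayed with a water-diluted emulsion of the compound at a predetermined rate. Plants grew in a greenhouse at 25° C. to 30° C.; effects were scored visually 3 weeks after application.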

rapeseed = assay: Test Example 4: effect on crop by soil treatment (symbol g); conditions: application herbicide amount 320 g/ha
Procedure, shortened: as §2

corn = assay: Test Example 5: effect on crop by foliage application, plastic box (symbol c); conditions: 320 g/ha, 3 weeks after application
Procedure, shortened: as §1

Avena fatua = assay: Test Example 5: herbicidal effect by foliage application, plastic box (symbol I); conditions: 320 g/ha, 3 weeks after application
Procedure, shortened: as §3

Setaria viridis = assay: Test Example 4: herbicidal effect by soil treatment (symbol G); conditions: application herbicide amount 320 g/ha
Procedure, shortened: as §4

| Structure (SMILES) | b: directly sowed rice plant, effect on crop grade (rice plant) | e (wheat) effect on crop grade (wheat) | O: Chenopodium album, herbicidal effect grade (Chenopodium album) | herbicidal effect on H (Echinochloa crus-galli var. crus-galli), grade 0-5 [1] | K: Lolium multiflorum Lam., herbicidal effect grade (Lolium multiflorum Lam.) | F: Digitaria ciliaris, herbicidal effect grade (Digitaria ciliaris) | J: Alopecurus myosuroides, herbicidal effect grade (Alopecurus myosuroides) | L: Apera spica-venti, herbicidal effect grade (Apera spica-venti [2]) | P: Stellaria media, herbicidal effect grade (Stellaria media) | d (soybean) effect on crop grade (soybean) | effect on crop b (directly sowed rice plant), grade 0-5 [3] | L (Apera spica-venti) herbicidal effect grade (Apera spica-venti [4]) | g (rapeseed) effect on crop grade (rapeseed) | c: corn, effect on crop grade (corn) | I: Avena fatua, herbicidal effect grade (Avena fatua) | G (Setaria viridis) herbicidal effect grade (Setaria viridis) |
| --- | --- | --- | --- | --- | --- | --- | --- | --- | --- | --- | --- | --- | --- | --- | --- | --- |
| CC(CC1CC(O)=C(c2c(C)cc(C)cc2C)C1=O)=NOCC(F)(F)F (centres unmarked) [1-028] | 5 (Herbicidal ratio of 90% or more (almost completely withered)) | 4 (Herbicidal ratio of 70% or higher and lower than 90%) | 3 (Herbicidal ratio of 40% or higher and lower than 70%) | 5 (Herbicidal ratio of 90% or more (almost completely withered)) | 5 (Herbicidal ratio of 90% or more (almost completely withered)) | 5 (Herbicidal ratio of 90% or more (almost completely withered)) | 5 (Herbicidal ratio of 90% or more (almost completely withered)) | 5 (Herbicidal ratio of 90% or more (almost completely withered)) | 3 (Herbicidal ratio of 40% or higher and lower than 70%) | 0 (Herbicidal ratio of 5% or lower (almost no effect)) | 5 (Herbicidal ratio of 90% or more (almost completely withered)) | 5 (Herbicidal ratio of 90% or more (almost completely withered)) | 4 (Herbicidal ratio of 70% or higher and lower than 90%) | 4 (Herbicidal ratio of 70% or higher and lower than 90%) | 4 (Herbicidal ratio of 70% or higher and lower than 90%) | 5 (Herbicidal ratio of 90% or more (almost completely withered)) |
| CON=C(C)C(C)C1CC(O)=C(c2c(C)cc(C)cc2C)C1=O (centres unmarked) [1-032] | 5 (Herbicidal ratio of 90% or more (almost completely withered)) | 5 (Herbicidal ratio of 90% or more (almost completely withered)) | 3 (Herbicidal ratio of 40% or higher and lower than 70%) | 5 (Herbicidal ratio of 90% or more (almost completely withered)) | 5 (Herbicidal ratio of 90% or more (almost completely withered)) | 5 (Herbicidal ratio of 90% or more (almost completely withered)) | 5 (Herbicidal ratio of 90% or more (almost completely withered)) | 5 (Herbicidal ratio of 90% or more (almost completely withered)) | 4 (Herbicidal ratio of 70% or higher and lower than 90%) | 0 (Herbicidal ratio of 5% or lower (almost no effect)) | 5 (Herbicidal ratio of 90% or more (almost completely withered)) | 5 (Herbicidal ratio of 90% or more (almost completely withered)) | 5 (Herbicidal ratio of 90% or more (almost completely withered)) | 5 (Herbicidal ratio of 90% or more (almost completely withered)) | 5 (Herbicidal ratio of 90% or more (almost completely withered)) | 5 (Herbicidal ratio of 90% or more (almost completely withered)) |

From patent publication US11000033B2, “Ketone or oxime compound, and herbicide” (NISSAN CHEMICAL CORPORATION, priority 2014, dated 2021)
